In patent US11999806B2, “Broad-spectrum polypeptide against enterovirus and application thereof” (WUHAN INSTITUTE OF VIROLOGY, CHINESE ACADEMY OF SCIENCES, priority 2018, dated 2024):
pIC50: −log10 of the molar value. Where “and” joins values, the source holds several entries; their conditions need not be identical. Equal values may be shown once. Non-standard residues stand in square brackets, D forms with d. Residues, ends and D or L forms follow the SMILES beside them. No end group written: not given here.

Tests used:
[1] = test system: EV71; assay: Anti-EV71 efficiency in RD cells, viral RNA by qRT-PCR; type: cell-based, enterovirus 71; details: for Relative viral RNA amount (%): 24 h, control infected without polypeptide
Method: • (1) RD cells were plated in five 100 mm dishes. • (2) After the cells reached 70%-80% confluence, the MEM medium containing 10% serum was replaced with a MEM medium containing 2% serum. […] When the changes were obvious, samples were collected as follows. • (4) The supernatant in the 100 mm dish was transferred into a 15 ml centrifuge tube, and centrifuged at 500 g for 5 min. • (5) The supernatant was transferred into a new 15 ml centrifuge tube, and filtered through 0.22 μm filter membrane with a 50 ml syringe. • (6) RNA was extracted from 100 μl of the supernatant obtained in step (5) and subjected to one step qRT-PCR to measure the virus titer, and the previously extracted virus RNA with known titer was handled together as a control. 3. Measure Antiviral Efficiency of Polypeptide in RD Cells. • (1) Different cells were plated in 24-well cell plates. • (2) After the cells reached 70%-80% confluence, the MEM medium containing 10% serum was replaced with a MEM medium containing 2% serum (0.5 ml/well), and 5 μl of 10^6 PFU/mL EV71 viruses per well were added. • (3) After 1 h, different polypeptides were added at a final concentration of 0.01 μM, 0.1 μM, 1 μM, 10 μM, and 50 μM, respectively. • (4) Samples were collected 24 hours after virus infection, and RNA was extracted with total RNA extraction kit as follows. • (5) The supernatant in the wells was discarded, then 350 μl of TRK Lysis Buffer was added to each well and the plate was shaken on the shaker for 5 minutes. • (6) 350 μl of 70% ethanol (DEPC-treated) was added to the well and the plate was shaken on the shaker for 5 minutes. • (7) The mixture in the well was transferred to a RNA extraction column and centrifuged at 12,000 g for 1 min. • (8) The solution collected in the recovery tube was added back to the column and centrifuged at 12,000 g for 1 min. • (9) RNA washing buffer 1 was added to the column and centrifuged at 12,000 g for 30 s. • (10) RNA washing buffer 2 was added to the column and centrifuged at 12,000 g for 1 min. • (11) Step (10) was repeated once. • (12) The column was centrifuged at 12000 g for 2 min to completely remove residual RNA washing buffer. • (13) 50 μl DEPC-treated H2O was added to the column and centrifuge at 12,000 g for 2 min. • (14) 2 μl RNA sample was used according to one step qRT-PCR kit for fluorescence quantification experiment.
RD cells added with R8 penetrating peptide (sequence: RRRRRRRR) were used as a negative control.
RD cells were used to test the antiviral effect of polypeptide P2. EV71 (MOI=0.1) was added to RD cells at 80% confluence. After 1 hour of infection, polypeptide P2 was added at concentrations of 0.01 μM, 0.1 μM, 1 μM, 10 μM, and 50 μM, respectively. The samples were collected 24 hours later, and the total RNA was extracted. The level of viral genomic RNA was detected by qRT-PCR. The cells infected with the same type virus and added with penetrating peptide R8 were used as a control group.
• (1) RD cells were plated in five 100 mm dishes. • (2) After the cells reached 70%-80% confluence, the MEM medium containing 10% serum was replaced with a MEM medium containing 2% serum. […] When the changes were obvious, samples were collected as follows. • (4) The supernatant in the 100 mm dish was transferred into a 15 ml centrifuge tube, and centrifuged at 500 g for 5 min. • (5) The supernatant was transferred into a new 15 ml centrifuge tube, and filtered through 0.22 μm filter membrane with a 50 ml syringe. • (6) RNA was extracted from 100 μl of the supernatant obtained in step (5) and subjected to one step qRT-PCR to measure the virus titer, and the previously extracted virus RNA with known titer was handled together as a control. 3. […]

[2] = test system: CVA6; assay: Anti-CVA6 effect in Vero cells, qRT-PCR; type: cell-based, Coxsackievirus A6; details: for Virus inhibition rate (%): CVA6 MOI 0.01, Vero cells, 24 h, qRT-PCR
Method: • (1) Vero cells were plated in a 24-well cell plate. • (2) After the cells reached 70%-80% confluence, the MEM medium containing 10% serum was replaced with a MEM medium containing 2% serum and CVA6 virus, 0.5 ml per well. MOI of the virus was 0.01. The wells without CVA6 virus was set as control group. • (3) After 1 h, […], respectively. • (4) Samples were collected 24 hours after virus infection, and RNA was extracted with total RNA extraction kit as follows. • (5) The supernatant in the wells was discarded, then 350 μl of TRK Lysis Buffer was added to each well and the plate was shaken on the shaker for 5 minutes. • (6) 350 μl of 70% ethanol (DEPC-treated) was added to the well and the plate was shaken on the shaker for 5 minutes. • (7) The mixture in the well was transferred to a RNA extraction column and centrifuged at 12000 g for 1 min. • (8) The solution collected in the recovery tube was added back to the column and centrifuged at 12000 g for 1 min. • (9) RNA washing buffer 1 was added to the column and centrifuged at 12,000 g for 30 s. • (10) RNA washing buffer 2 was added to the column and centrifuged at 12,000 g for 1 min. • (11) Step (10) was repeated once. • (12) The column was centrifuged at 12,000 g for 2 min to completely remove residual RNA washing buffer. • (13) 50 μl DEPC-treated H2O was added to the column and centrifuge at 12,000 g for 2 min. • (14) 2 μl RNA sample was used according to one step qRT-PCR kit for fluorescence quantification experiment.

[3] = test system: CVB5; assay: Anti-CVB5 effect in RD cells, qRT-PCR; type: cell-based, Coxsackievirus B5; details: Example 20, read-out: IC50 against CVB5
Method: • (1) […] were plated in a 24-well cell plate. • (2) After the cells reached 70%-80% confluence, the MEM medium containing 10% serum was replaced with a MEM medium containing 2% serum (0.5 ml/well).

Molecule: CC[C@@H](C)[C@@H](NC(=O)[C@H]1CCCN1C(C)=O)C(=O)N[C@@H](C(=O)N[C@H](Cc1c[nH]c2ccccc12)C(=O)NCC(=O)N[C@H](CCC(N)=O)C(=O)N[C@H](CCC(=O)O)C(=O)N[C@H](CCCNC(=N)N)C(=O)N[C@H](CS)C(=O)N[C@H](Cc1ccc(O)cc1)C(=O)N[C@H](CCC(N)=O)C(=O)N[C@H](CCCNC(=N)N)C(=O)N[C@@H](C(=O)N[C@H](CCC(=O)O)C(=O)N[C@H](CCC(=O)O)C(=O)N1CCC[C@@H]1C(=O)N1CCC[C@@H]1C(=O)N[C@H](CCCNC(=N)N)C(=O)N[C@H](CCCNC(=N)N)C(=O)N[C@H](CCCNC(=N)N)C(=O)N[C@H](CCC(N)=O)C(=O)N[C@H](CCCNC(=N)N)C(=O)N[C@H](CCCNC(=N)N)C(=O)N[C@H](CCCCN)C(=O)N[C@H](CCCCN)C(=O)N[C@H](CCCNC(=N)N)C(=O)NCC(=O)N[C@H](Cc1ccc(O)cc1)C(N)=O)C(C)C)[C@H](C)CC [3A-EP-DRI]
- Relative viral RNA amount (%) ([1]; EV71 MOI=0.1, 0.01 μM): 75.93% and 73.36% and 72.89%
- Relative viral RNA amount (%) ([1]; EV71 MOI=0.1, 0.1 μM): 72.52% and 70.59% and 61.38%
- Relative viral RNA amount (%) ([1]; EV71 MOI=0.1, 1 μM): 100.5% and 95.84% and 90.71%

Molecule: CCCCCCCCCCCCCCCC(=O)NCCCC[C@H](NC(=O)CCOCCOCCOCCOCCNC(=O)[C@H](CCCCN)NC(=O)[C@H](C)NC(=O)[C@@H]1CCCN1C(=O)[C@@H](NC(=O)[C@@H](NC(=O)[C@H](Cc1c[nH]c2ccccc12)NC(=O)CNC(=O)[C@H](CCC(N)=O)NC(=O)[C@H](CCC(=O)O)NC(=O)[C@H](CCCNC(=N)N)NC(=O)[C@H](CS)NC(=O)[C@H](Cc1ccc(O)cc1)NC(=O)[C@H](CCC(N)=O)NC(=O)[C@H](CCCNC(=N)N)NC(=O)[C@@H](NC(=O)[C@H](CCC(=O)O)NC(=O)[C@@H](N)CCC(=O)O)C(C)C)[C@@H](C)CC)[C@@H](C)CC)C(=O)O [3A-EP-PEG4-PA]
- Relative viral RNA amount (%) ([1]; EV71 MOI=0.1, 0.01 μM): 72.5% and 68.12% and 59.1%
- Relative viral RNA amount (%) ([1]; EV71 MOI=0.1, 0.1 μM): 69.96% and 68.69% and 67.81%
- Relative viral RNA amount (%) ([1]; EV71 MOI=0.1, 1 μM): 107.1% and 89.26% and 75.24%

Molecule: CC(=O)N[C@H](CCCNC(=N)N)C(=O)N[C@H](CS)C(=O)N[C@H](Cc1ccc(O)cc1)C(=O)N[C@H](CCC(N)=O)C(=O)N[C@H](CCCNC(=N)N)C(=O)N[C@@H](C(=O)N[C@H](CCC(=O)O)C(=O)N[C@H](CCC(=O)O)C(=O)N1CCC[C@@H]1C(=O)N1CCC[C@@H]1C(=O)N[C@H](CCCNC(=N)N)C(=O)N[C@H](CCCNC(=N)N)C(=O)N[C@H](CCCNC(=N)N)C(=O)N[C@H](CCC(N)=O)C(=O)N[C@H](CCCNC(=N)N)C(=O)N[C@H](CCCNC(=N)N)C(=O)N[C@H](CCCCN)C(=O)N[C@H](CCCCN)C(=O)N[C@H](CCCNC(=N)N)C(=O)NCC(=O)N[C@H](Cc1ccc(O)cc1)C(N)=O)C(C)C [ER-DRI] (Ac-[dR][dC][dY][dQ][dR][dV][dE][dE][dP][dP][dR][dR][dR][dQ][dR][dR][dK][dK][dR]G[dY]-NH2)
- Virus inhibition rate (%) ([2]; 0.625 μM): 71.8% and 74.9% and 67.5%
- Virus inhibition rate (%) ([2]; 2.15 μM): 72.6% and 85.3% and 90.4%
- Virus inhibition rate (%) ([2]; 2.5 μM): 91.3% and 93.4% and 91.7%
- Virus inhibition rate (%) ([2]; 5 μM): 94.3% and 94.9% and 96.4%
- Virus inhibition rate (%) ([2]; 10 μM): 91.4% and 97.8% and 97.9%
- effect on CVA6 replication, in words ([2]; Vero cells): able to inhibit the replication of CVA6
- pIC50 ([2]; Vero cells, read-out: IC50 against CVA6): > 6.20

Molecule: RRRRRRRREEVRQYCRDQ [P2]
- pIC50 ([1]; read-out: IC50 against EV71 by qRT-PCR): 5.20

Molecule: YGRKKRRQRRRGSGEAVREYCK [BP8]
- pIC50 [3]: 5.81
